Measured values: patent US20260209305A1, “THERAPEUTIC EXPLOITATION OF STING CHANNEL ACTIVITY” (The Broad Institute Inc., priority 2022, published 2026)
Blank lines part the entries; values can stand above or below the compound they belong to.

Tests used:
[1] = target: T1, STING (Homo sapiens, UniProt Q86WV6); test: STING-induced autophagy: LC3 lipidation, RFP-LC3 imaging in FIP200 KO 293T cells and western blot in BJ1 cells; format: cell-based; design: expressed in transfected cells; host or cells: FIP200 KO 293T cells, lentiviral transduction; details: 1 hour; for LC3 lipidation upon agonist treatment: 20 ug/ml cGAMP, 40 μM MSA2 or 1 μM diABZI
[2] = target: T1, STING; test: Organelle pH measurement (Lysosensor) after STING activation in BJ1 cells; format: cell-based; details: human fibroblasts (BJ1), 1 μM diABZI, 1 hr
Description: Organelle pH Measurements and Image Acquisition: hTERT-immortalized BJ1 cells (ATCC CRL-2522) were plated in 24-well glass-bottom plates (Greiner Bio-One). After 24 hours, cells were stained for 30 minutes at 37° C. with 5 μM Lysosensor (Thermo Fisher Scientific cat #L7535), […] Hoechst (Thermo Fisher Scientific, cat. #62249), and 1 μM Bodipy TR Ceramide (Thermo Fisher Scientific cat #B34400) for Golgi labeling or 100 nM Lysotracker Deep Red (Thermo Fisher Scientific cat #L12492) for endolysosome labeling in Phenol-free DMEM medium with 10% FBS and 1% Pen-Strep. Cells were then washed five times with Phenol-free DMEM medium and stimulated with 1 μM DIABZI for 1 hr with or without the addition of 10 μM C53. […] An LED light engine (Lumencor CELESTA Light Engine) was used for fluorescence illumination and all hardware was controlled using NIS elements software. […]
Given the necessity of both the STING transmembrane domain and its translocation for autophagy induction, it was investigated whether the entire STING protein could cause ion leakage by either inducing membrane damage resulting in a secondary ion imbalance or by directly acting as an ion channel. […] The possibility that STING directly behaves as a channel for proton release into the cytosol upon translocation to the Golgi was assessed, the Golgi being an acidic compartment (Linders et al. 2022). […]

[3] = test system: NLRP3; test: NLRP3-mNeongreen reporter: NLRP3 puncta in 293T cells expressing STING-HA; format: cell-based, human; details: 1 μM diABZI, 1 hour
[4] = test system: NLRP3 inflammasome; test: Inflammasome activation and IL-1ß release in primary human monocytes; format: cell-based
[5] = test system: STING; test: RFP-LC3 induction and pSTING by FACS in HEK293T cells expressing STING WT or H50R; format: cell-based, human; details: mutant vs WT STING, FIP200 KO 293T cells, agonist stimulation
Description: FACS based genome-wide CRISPR screen and mutagenesis screen: FIP200 KO 293T cells were generated by transfecting 293T cells with pXPR_023 (Addgene #52961), encoding Cas9 and an sgRNA against FIP200 and selecting cells with 2 μg/ml puromycin (Thermo Fisher Scientific #A1113803) for two days. FIP200 KO 293T cells were then transduced with pTRIP-PGK-Hygro-P2A-RFP-LC3, treated with 33 μg/ml hygromycin (Invivogen, #ant-hg-1) for 3 days, and then sorted to get a homogenous RFP+ population.
Mutagenesis screen: RFP-LC3 FIP200 KO 293T cells were infected with saturated mutagenesis library lentivirus at MOI=0.2, and selected with 20 μg/ml blasticidin for 2 days. 150M transduced cells were treated with diABZI for 1.5 hr, and then permeabilized with 1× perm buffer (PBS with 0.05% saponin and 0.1% glycine) for 4 min. Permed cells are then washed with 1×PBS, and fix, perm, and stained using BD Cytofix/Cytoperm kit and anti-pSTING Alexa647 (CST, #43499) at 1:100 dilution.
A sorting strategy similar to the genome-wide CRISPR screen was followed, sorting populations of LC3− and LC3+ HEK293T cells within the pSTING+ cell population (FIG. 3E), thus ensuring that the sorted cell mutants enabled expression of functional STING able to translocate to Golgi/endosomes where phosphorylation of STING occurs (Dobbs et al. 2015). […]
Target sequence in this assay (Q86WV6 153-340 limits assumed): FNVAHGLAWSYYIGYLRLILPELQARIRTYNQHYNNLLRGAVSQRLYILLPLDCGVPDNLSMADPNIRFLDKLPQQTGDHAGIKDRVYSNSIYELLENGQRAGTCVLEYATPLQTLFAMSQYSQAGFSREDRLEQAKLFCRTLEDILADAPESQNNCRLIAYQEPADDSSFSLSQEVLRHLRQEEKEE

[6] = test system: STING; test: p-STING and LC3B lipidation immunoblot in 293T cells expressing WT STING, STING AQQA or TMEM192-STING-LBD; format: cell-based, human; details: 293T cells expressing the STING construct
Description: Genes that are essential for mediating STING-induced autophagy were systematically identify, with a special interest in identifying potential transporters responsible for ion leakage. […] A genome-wide CRISPR fluorescence-activated cell sorting (FACS) screen was carried out using HEK293T cells expressing RFP-LC3 and STING-HA with FIP200 knocked out in order to reduce background signal from basal autophagy. Following transduction with the sgRNA library, cells were stimulated with diABZI to induce STING activation and STING-HA+ cells were sorted into LC3− and LC3+ bins (FIG. 1A) to specifically identify genes that altered CASM activation without affecting STING activation. […] The STING itself may have mediated Golgi/endosomes proton leakage critical for subsequent assembly of V-ATPase and recruitment of ATG16L1 to initiate CASM (Xu et al. 2019). In order to assess this, whether the STING ligand-binding domain (LBD), which has been proposed to recruit LC3 through its LR motifs (Gui et al. 2019; Liu et al. 2019), could induce autophagy upon translocation to Golgi/endosomes was first tested. Autophagy induction was tested in 293T cells by WT STING, a STING oligomerization-deficient mutant (A277Q/Q273A STING, termed AQQA), and an endolysosome-localized STING fusion protein (the endolysosomal protein TMEM192 fused with the STING LBD) upon agonist stimulation. […]

T1 sequence (Q86WV6 whole entry): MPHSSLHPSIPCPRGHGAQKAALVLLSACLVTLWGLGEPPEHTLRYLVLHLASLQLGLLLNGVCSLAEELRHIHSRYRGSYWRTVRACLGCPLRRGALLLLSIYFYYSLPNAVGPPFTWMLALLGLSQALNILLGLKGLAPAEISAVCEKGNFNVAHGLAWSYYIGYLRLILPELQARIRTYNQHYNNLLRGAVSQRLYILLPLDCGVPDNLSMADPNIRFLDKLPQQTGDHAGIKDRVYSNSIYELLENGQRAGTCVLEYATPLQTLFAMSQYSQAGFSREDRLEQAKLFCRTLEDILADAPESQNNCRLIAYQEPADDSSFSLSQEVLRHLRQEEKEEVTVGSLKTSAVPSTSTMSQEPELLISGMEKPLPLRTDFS

Compound: CO[C@@H]1C[C@@H](C[C@H]2CC[C@H](C)[C@H]([C@@H](C)C(=O)O)O2)O[C@]2(O[C@](C)([C@H]3CC[C@@](C)([C@@H]4O[C@@H]([C@H]5O[C@@](O)(CO)[C@H](C)C[C@@H]5C)C[C@@H]4C)O3)C[C@H]2C)[C@@H]1C [Nigericin]
LC3 lipidation by independent ionophore stimulus ([1]; BJ1 cells, 2 μM Nigericin): induction of LC3 lipidation

fluorescence within the endolysosomal compartment [2]: only modestly altered
pH within the Golgi apparatus (decreased fluorescence of Lysosensor Green dye) [2]: significant increase in pH
LC3 lipidation upon agonist treatment [1]: LC3 lipidation was induced
Compound: CCn1nc(C)cc1C(=O)Nc1nc2cc(C(N)=O)cc(OC)c2n1C/C=C/Cn1c(NC(=O)c2cc(C)nn2CC)nc2cc(C(N)=O)cc(OCCCN3CCOCC3)c21 [diABZI]
NLRP3 translocation upon stimulation [3]: NLRP3 translocated from the cytoplasm to perinuclear vesicles
IL-1ß release upon STING agonist stimulation [4]: induced

Compound: COc1cc2cc(C(=O)CCC(=O)O)sc2cc1OC [MSA2]
LC3 lipidation upon agonist treatment [1]: LC3 lipidation was induced

Compound: STING H50R: human STING polypeptide with H50R substitution in TM2, inside the pore area
LC3 induction within pSTING+ cells (STING-induced autophagy) [5]: reduced
LC3 induction within pSTING+ cells (STING-induced autophagy) ([5]; listed as H50R): strongly inhibit

Compound: cyclic GMP-AMP [cGAMP]
IL-1ß release upon STING agonist stimulation [4]: induced

Compound: AQQA: STING oligomerization-deficient mutant (A277Q/Q273A STING)
autophagy induction (LC3B lipidation) upon agonist stimulation [6]: impaired LC3B lipidation
